Among the data in patent publication US12390437B2, “Itaconic acid derivatives and uses thereof intreating an inflammatory disease or a disease associated with an undesirable immune response” (Sitryx Therapeutics Limited, priority 2019, dated 2025) are IC50 values, retold here.

Test [1] concerns IL-6 cytokine output from THP-1s. The test is described as follows: THP-1 AlphaLISA IL-6 cytokine assay. It counts as cell-based, human. As to conditions: Homo sapiens; PMA-differentiated THP-1 cells, LPS 24 hr then Nigericin 1 hour. The procedure:
Measuring Inhibitory Effects on IL-1β and IL-6 Cytokine Output from THP-1s
The cytokine inhibition profiles of compounds of formula (IW-1) were determined in a differentiated THP-1 cell assay. All assays were performed in RPMI-1640 growth medium (Gibco), supplemented with 10% fetal bovine serum (FBS; Gibco), 1% penicillin-streptomycin and 1% sodium pyruvate unless specified otherwise. The IL-1β and IL-6 cytokine inhibition assays were each run in a background of differentiated THP-1 cells as described below. All reagents described were from Sigma-Aldrich unless specified otherwise. Compounds were prepared as 10 mM DMSO stocks.
THP-1 cells were expanded as a suspension up to 80% confluence in appropriate growth medium. Cells were harvested, suspended, and treated with an appropriate concentration of phorbol 12-myristate 13-acetate (PMA) over a 72 hr period (37° C./5% CO2).
Following 72 hrs of THP-1 cell incubation, cellular medium was removed and replaced with fresh growth media containing 1% of FBS. Working concentrations of compounds were prepared separately in 10% FBS treated growth medium and pre-incubated with the cells for 30 minutes (37° C./5% CO2). Following the 30 minute compound pre-incubation, THP-1s were treated with an appropriate concentration of LPS and the THP-1s were subsequently incubated for a 24 hr period (37° C./5% CO2). An appropriate final concentration of Nigericin was then dispensed into the THP-1 plates and incubated for 1 hour (37° C./5% CO2) before THP-1 supernatants were harvested and collected in separate polypropylene 96-well holding plates.
Reagents from each of the IL-1β and IL-6 commercial kits (Perkin Elmer) were prepared and run according to the manufacturer's instructions. Subsequently, fluorescence signal detection in a microplate reader was measured (EnVision® Multilabel Reader, Perkin Elmer).
Percentage inhibition was calculated per cytokine by normalising the sample data to the high and low controls used within each plate (+/−LPS respectively). Percentage inhibition was then plotted against compound concentration and the 50% inhibitory concentration (IC50) was determined from the resultant concentration-response curve.

The test system of test [2] is IL-1β cytokine output from THP-1s. The test is described as follows: THP-1 AlphaLISA IL-1β cytokine assay. The format is cell-based, human. As to conditions: Homo sapiens, THP-1, PMA-differentiated THP-1 cells, LPS 24 hr then Nigericin 1 hour; read-out: IL-1β (IC50). The method, boiled down: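 PMA-differentiated (72 h) THP-1 cells pretreated 30 min with compound, LPS-stimulated 24 h, then nigericin 1 h at 37 °C. Supernatant IL-1β and IL-6 by AlphaLISA; % inhibition normalised to ±LPS controls, IC50 from concentration-response curves.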

The structures appear in SMILES notation.

For the molecule `C=C(CC(=O)OCCCCCCCC)C(=O)OC1CS(=O)(=O)C1` [Example 47, 1-(1,1-dioxidothietan-3-yl) 4-octyl 2-methylenesuccinate], the values for the IC50 in test [1] and in test [2] were 3 µM and 3.3 µM, respectively.
For `C=C(CC(=O)OCCCCCCCC)C(=O)OCC(=O)OC(C)(C)C` [Example 48, 1-(2-(tert-butoxy)-2-oxoethyl) 4-octyl 2-methylenesuccinate], the IC50 amounted to 5.1 µM in test [1] and 10.1 µM in test [2].
For `C=C(CC(=O)OCCCCCCCC)C(=O)OCCN1CCN(C)CC1` [Example 51, 1-(2-(4-methylpiperazin-1-yl)ethyl) 4-octyl 2-methylenesuccinate], in that order: 4 µM and 7.3 µM.
On the same counts, the results for `C=C(CC(=O)OCCCCCCCC)C(=O)OCCN1CCS(=O)(=O)CC1` [Example 52, 1-(2-(1,1-dioxidothiomorpholino)ethyl) 4-octyl 2-methylenesuccinate] are 2.5 µM and 8.5 µM.
Take `C=C(CC(=O)OCCCCCCCC)C(=O)OCCNS(C)(=O)=O` [Example 53, 1-(2-(methylsulfonamido)ethyl) 4-octyl 2-methylenesuccinate]: the IC50 amounted to 5.4 µM in test [1] and 9.3 µM in test [2].
On to `C=C(CC(=O)O[C@H](C)CCCCCC)C(=O)OCCS(C)(=O)=O` [Example 55, (R)-1-(2-(methylsulfonyl)ethyl) 4-(octan-2-yl) 2-methylenesuccinate], for which the IC50 was 3.8 µM in test [1] and 5.1 µM in test [2].
Turning to `C=C(CC(=O)O[C@H](C)CCCCCC)C(=O)OC(C)CS(C)(=O)=O` (stereo partly drawn) [Example 56, 1-(1-(methylsulfonyl)propan-2-yl) 4-((R)-octan-2-yl) 2-methylenesuccinate], the IC50 is 3.5 µM in test [1] and 7.9 µM in test [2].
For `C=C(CC(=O)O[C@H](C)CCCCCC)C(=O)OC1CS(=O)(=O)C1` [Example 57, (R)-1-(1,1-dioxidothietan-3-yl) 4-(octan-2-yl) 2-methylenesuccinate], in that order: 2.6 µM and 4.4 µM.
For `C=C(CC(=O)O[C@H](C)CCCCCC)C(=O)OC1CN(C(C)=O)C1` [Example 58, (R)-1-(1-acetylazetidin-3-yl) 4-(octan-2-yl) 2-methylenesuccinate], in that order: 3.8 µM and 6.5 µM.
For `C=C(CC(=O)OC1CCCCC1)C(=O)OC(C)CS(C)(=O)=O` (stereo not drawn) [Example 59, 4-cyclohexyl 1-(1-(methylsulfonyl)propan-2-yl) 2-methylenesuccinate], in that order: 8.8 µM and 13.3 µM.
With `C=C(CC(=O)OC1CCCCC1)C(=O)OC1CS(=O)(=O)C1` [Example 60, 4-cyclohexyl 1-(1,1-dioxidothietan-3-yl) 2-methylenesuccinate], the IC50 in test [1] came to 1.4 µM; in test [2], 1.9 µM.
`C=C(CC(=O)OC1CCCCC1)C(=O)OCCS(C)(=O)=O` [Example 61, 4-cyclohexyl 1-(2-(methylsulfonyl)ethyl) 2-methylenesuccinate]: the IC50 came to 5 µM in test [1] and 6.1 µM in test [2].
In the case of `C=C(CC(=O)OC1CCCCCCC1)C(=O)OC(C)CS(C)(=O)=O` (stereo not drawn) [Example 62, 4-cyclooctyl 1-(1-(methylsulfonyl)propan-2-yl) 2-methylenesuccinate], the IC50 in test [1] amounted to 2.8 µM; in test [2] it was 3.5 µM.
In the case of `C=C(CC(=O)OC1CCCCCCC1)C(=O)OC1CN(C(C)=O)C1` [Example 63, 1-(1-acetylazetidin-3-yl) 4-cyclooctyl 2-methylenesuccinate], the IC50 in test [1] stood at 2.5 µM; in test [2], 1.3 µM.
On the same counts, the results for `C=C(CC(=O)OC1CCCCC1)C(=O)OC1CCOCC1` [Example 64, 4-cyclohexyl 1-(tetrahydro-2H-pyran-4-yl) 2-methylenesuccinate] are 12.6 µM and 10.2 µM.
As for `C=C(CC(=O)OC1CCCCC1)C(=O)OCCN1CCCC1=O` [Example 65, 4-cyclohexyl 1-(2-(2-oxopyrrolidin-1-yl)ethyl) 2-methylenesuccinate], the half-maximal inhibitory concentration (IC50) in test [1] came to 22.4 µM; in test [2] it was 22.6 µM.
For `C=C(CC(=O)O[C@@H](C)CCCCCC)C(=O)OC1CN(C(C)=O)C1` [Example 66, (S)-1-(1-acetylazetidin-3-yl) 4-(octan-2-yl) 2-methylenesuccinate], in that order: 2.5 µM and 2.3 µM.
`C=C(CC(=O)O[C@@H](C)CCCCCC)C(=O)OC1CS(=O)(=O)C1` [Example 67, (S)-1-(1,1-dioxidothietan-3-yl) 4-(octan-2-yl) 2-methylenesuccinate]: the half-inhibitory concentration (IC50) is 4.8 µM in test [1] and 5.7 µM in test [2].
In the case of `C=C(CC(=O)OCCCCCCCC)C(=O)OC1(C)COC1` [Example 68, 1-(3-methyloxetan-3-yl) 4-octyl 2-methylenesuccinate], the IC50 in test [1] was 9.1 µM; in test [2] it was 24 µM.
As to `C=C(CC(=O)OC1CCCCCCC1)C(=O)OC1CCOCC1` [Example 70, 4-cyclooctyl 1-(tetrahydro-2H-pyran-4-yl) 2-methylenesuccinate], the IC50 in test [1] was found to be 9.4 µM; in test [2], 6.1 µM.
As for `C=C(CC(=O)OC1CCCCCCC1)C(=O)OCCN1CCCC1=O` [Example 71, 4-cyclooctyl 1-(2-(2-oxopyrrolidin-1-yl)ethyl) 2-methylenesuccinate], the values for the IC50 in test [1] and in test [2] were 9.6 µM and 8.7 µM, respectively.
On the same counts, the results for `C=C(CC(=O)O[C@H](C)CCCCCC)C(=O)OCCN1CCCC1=O` [Example 72, (R)-4-(octan-2-yl) 1-(2-(2-oxopyrrolidin-1-yl)ethyl) 2-methylenesuccinate] are 8.2 µM and 11.4 µM.
Regarding `C=C(CC(=O)O[C@H](C)CCCCCC)C(=O)OC1CCOCC1` [Example 73, (R)-4-(octan-2-yl) 1-(tetrahydro-2H-pyran-4-yl) 2-methylenesuccinate], the IC50 in test [1] amounted to 23.5 µM; in test [2], 24.1 µM.
On the same counts, the results for `C=C(CC(=O)OCCCCCCCC)C(=O)OC(C)C(=O)O` (stereo not drawn) [Example 79, 2-((2-methylene-4-(octyloxy)-4-oxobutanoyl)oxy)propanoic acid] are 13.5 µM and 11.9 µM.
In the case of `C=C(CC(=O)OCC(C)(C)C)C(=O)OCCC(=O)O` [Example 83, 3-((2-methylene-4-(neopentyloxy)-4-oxobutanoyl)oxy)propanoic acid], the IC50 was 96.9 µM in test [1] and 34.2 µM in test [2].
For `C=C(CC(=O)OCCS(=O)(=O)c1ccc(C)cc1)C(=O)OCC(=O)O` [Example 97, 2-((2-methylene-4-oxo-4-(2-tosylethoxy)butanoyl)oxy)acetic acid], in that order: 30.3 µM and 29.3 µM.
For `C=C(CC(=O)OCCCCCCCC)C(=O)OCC(=O)N1CCN(C)CC1` [Example 107, 1-(2-(4-methylpiperazin-1-yl)-2-oxoethyl) 4-octyl 2-methylenesuccinate], in that order: 2.7 µM and 10 µM.
Regarding `C=C(CC(=O)OCCCCCCCC)C(=O)OCCC(=O)N1CCOCC1` [Example 108, 1-(3-morpholino-3-oxopropyl) 4-octyl 2-methylenesuccinate], the IC50 in test [1] turned out to be 3.1 µM; in test [2] it was 11.1 µM.
For `C=C(CC(=O)OCCCCCCCC)C(=O)OCCC(=O)N(CC)CC` [Example 109, 1-(3-(diethylamino)-3-oxopropyl) 4-octyl 2-methylenesuccinate], the IC50 in test [1] was 6.8 µM; in test [2] it was 10.6 µM.
On the same counts, the results for `C=C(CC(=O)OCCCCCCCC)C(=O)OCCC(=O)NC` [Example 110, 1-(3-(methylamino)-3-oxopropyl) 4-octyl 2-methylenesuccinate] are 4.4 µM and 8.5 µM.
For `C=C(CC(=O)OC1CCCCC1)C(=O)OC(C)C(=O)O` (stereo not drawn) [Example 111, 2-((4-(cyclohexyloxy)-2-methylene-4-oxobutanoyl)oxy)propanoic acid], in that order: 70.9 µM and 100 µM.
Turning to `C=C(CC(=O)OCC1CCC(F)(F)CC1)C(=O)OCC(=O)O` [Example 113, 2-((4-((4,4-difluorocyclohexyl)methoxy)-2-methylene-4-oxobutanoyl)oxy)acetic Acid], the results for the IC50 in test [1] and in test [2] were 48.5 µM and 100 µM, respectively.
Take `C=C(CC(=O)OCCCOCC)C(=O)OCC(=O)O` [Example 114, 2-((4-(3-ethoxypropoxy)-2-methylene-4-oxobutanoyl)oxy)acetic acid]: the IC50 amounted to 56.2 µM in test [1] and 100 µM in test [2].
